This note sets out measurements from patent US8735387B2, “Oxazolopyrimidines as Edg-1 receptor agonists” (Sanofi, priority 2008, dated 2014).

In the test the target is T1, human Edg-1 receptor (Homo sapiens, UniProt P21453).
T1 construct: expressed in transfected cells; membrane preparation
T1 sequence (P21453 whole entry): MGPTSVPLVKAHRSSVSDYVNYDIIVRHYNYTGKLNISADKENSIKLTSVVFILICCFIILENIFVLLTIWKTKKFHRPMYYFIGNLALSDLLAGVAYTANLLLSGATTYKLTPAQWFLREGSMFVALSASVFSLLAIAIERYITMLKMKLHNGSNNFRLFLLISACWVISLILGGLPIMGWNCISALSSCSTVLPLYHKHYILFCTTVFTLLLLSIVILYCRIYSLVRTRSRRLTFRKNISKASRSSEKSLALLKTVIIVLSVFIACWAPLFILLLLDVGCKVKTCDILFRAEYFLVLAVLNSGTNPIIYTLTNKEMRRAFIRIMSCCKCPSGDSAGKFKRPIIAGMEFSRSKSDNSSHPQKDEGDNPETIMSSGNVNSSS
In words: GTP-γ-S assay using human Edg-1 receptors (scintillation proximity assay, membrane preparation from CHO Flp-In cell line). The note with it: example compound at 10 μM; relative to 10 μM S1P; GTP-γ-S SPA, human Edg-1 membranes. It is filed as biochemical. An excerpt:
Determination of the Pharmacological Activity A) GTP-γ-S Assay Using Human Edg-1 Receptors
In order to determine the Edg-1 receptor activation by the compounds of the invention, a GTP-γ-S (guanosine 5′-[γ-thio]triphosphate) assay for G-protein coupled receptor binding based on the scintillation proximity assay principle was used, employing a cell membrane preparation from a CHO Flp-In cell line which constitutively overexpresses the human Edg-1 receptor.
The Flp-In™ expression system (Invitrogen, cat. no. K6010-01) allows the generation of stable mammalian cell lines into which the gene of interest has been integrated through homologous recombination at a specific genomic location called Flp Recombination Target (FRT) site by means of a Flp recombinase encoded by the pOG44 expression plasmid. The integration of the pcDNA5/FRT expression construct into the Flp-In host cell line genome results in the transcription of the gene of interest. The stably transfected cells become hygromycin-resistant.
One day prior to transfection, 200 000 Flp-In-CHO cells were seeded in Ham F-12 medium (Invitrogen, cat. no. 31765) supplemented with 10% fetal calf serum (FCS; Perbio Science, cat. no. SH30068.03) in a 6-well plate and incubated at 37° C./5% CO2 overnight. Using the FuGENE® 6 transfection reagent (Roche, cat. no. 11988387001), cells were cotransfected with the Flp recombinase expression plasmid pOG44 and a modified plasmid additionally containing the edg-1 gene (accession no. NM_001400) termed as pcDNA5-FRT-TO_nFLAG_DEST-EDG-1 with a 9:1 ratio. To obtain the modified pcDNA5-FRT-TO_nFLAG_DEST plasmid, the Invitrogen plasmid pcDNA5/FRT/TO (Invitrogen, cat. no. V6520-20) was adapted to the Gateway® (Invitrogen) cloning system by inserting a Gateway cassette containing attR recombination sites flanking a ccdB gene and a chloramphenicol-resistance gene (Gateway conversion system, Invitrogen, cat. no. 11828-029). In addition a FLAG tag epitope was added before the 5′ att recombination site to allow recombinant expression of N-terminally FLAG-tagged proteins.
For the transfection of one well, 1.08 μg of pOG44 and 0.12 μg of pcDNA5-FRT-TO_nFLAG_DEST-EDG-1 were mixed to 100 μl of serum-free Ham F-12 medium containing 6 μl of FuGENE® 6 transfection reagent. After 20 min of incubation, the transfection reagent/DNA complex was distributed dropwise on the cells. The cells were incubated for 24 h at 37° C. Then the cells from 3 wells each were transferred to a T75 flask (Greiner Cellstar®, cat. no. 658175) containing Ham F-12 medium supplemented with 10% of FCS but without antibiotic and were incubated another 24 h. 48 h after transfection, the medium was replaced by selection medium (Ham F-12 supplemented with 10% of FCS and 300 μg/ml of hygromycin B (Invitrogen, cat. no. 10687-010)). The medium was exchanged every 2 to 3 days until a resistant population of cells had grown. […] After 2 weeks of selection, the cells were transferred into T175 flasks (Greiner Cellstar®, cat. no. 660175) and cultivated for batch production. Cells were harvested from the culture flasks by short treatment (2 to 5 min) with Accutase (PAA, cat. no. L11-007), resuspended in selection medium (see above) and centrifuged at 200×g for 5 min. Cells were resuspended in a mixture of 90% of FCS and 10% of dimethylsulfoxide and stored frozen in liquid nitrogen.
A membrane preparation was obtained by standard methods from the afore-described CHO Flp-In cell line constitutively overexpressing the human Edg-1 receptor. Briefly, the cryopreserved cells were taken in culture and grown until confluency in T175 cell culture flasks (Becton Dickinson, cat. no. 35 5001). […]
For orientation: Scintillation proximity formats need no separation of bound from free tracer.
`CCCOc1nc(CN2CCC(F)(F)CC2)nc2oc(-c3cccc(OC)c3)nc12` [Example 36]: the “% Activation (Edg-1 receptor activation in percent of the activation by 10 μM S1P)” value was found to be 127%.
With `CCCOc1nc(CN2CCCOCC2)nc2oc(-c3cccc(OC)c3)nc12` [Example 37], the “% Activation (Edg-1 receptor activation in percent of the activation by 10 μM S1P)” value is 116%.
The same measure for `CCCOc1nc(CN2CCOCC2)nc2oc(-c3cccc(C)c3)nc12` [Example 38]: 114%; for `CCCOc1nc(CN2CCOCC2)nc2oc(-c3cncc(F)c3)nc12` [Example 39]: 82%; for `CCCOc1nc(CN2CCC(F)(F)CC2)nc2oc(-c3cncc(F)c3)nc12` [Example 40]: 123%.
The same measure for `CCCOc1nc(CN2CCOCC2)nc2oc(-c3ccccc3)nc12` [Example 41]: 116%.
As for `CCCOc1nc(CN2CCC(F)(F)CC2)nc2oc(-c3ccccc3)nc12` [Example 42], the “% Activation (Edg-1 receptor activation in percent of the activation by 10 μM S1P)” value amounted to 92%.
The same measure for `CCCOc1nc(CN2CCCOCC2)nc2oc(-c3ccccc3)nc12` [Example 43]: 122%; for `CCCOc1nc(Cn2ccnn2)nc2oc(-c3cccc(F)c3)nc12` [Example 44]: 78%; for `CCCOc1nc(CN2CCS(=O)(=O)CC2)nc2oc(-c3cccc(F)c3)nc12` [Example 45]: 69%.
Consider `CCCOc1nc(CN2CC[S+]([O-])CC2)nc2oc(-c3cccc(F)c3)nc12` [Example 46], for which the “% Activation (Edg-1 receptor activation in percent of the activation by 10 μM S1P)” value is 35%.
`CCCOc1nc(CN2CC(C)OC(C)C2)nc2oc(-c3cccc(F)c3)nc12` (centres unmarked) [Example 47]: the “% Activation (Edg-1 receptor activation in percent of the activation by 10 μM S1P)” value stood at 85%.
Turning to `CCCOc1nc(Cn2ccnc2C)nc2oc(-c3cccc(F)c3)nc12` [Example 48], the “% Activation (Edg-1 receptor activation in percent of the activation by 10 μM S1P)” value was 81%.
As for `CCCOc1nc(CN2CC3CC2CO3)nc2oc(-c3cccc(F)c3)nc12` (centres unmarked) [Example 49], the “% Activation (Edg-1 receptor activation in percent of the activation by 10 μM S1P)” value was determined as 48%.
On to `CCCOc1nc(CN2CCCC(F)(F)C2)nc2oc(-c3cccc(F)c3)nc12` [Example 50], for which the “% Activation (Edg-1 receptor activation in percent of the activation by 10 μM S1P)” value was 102%.
The same measure for `CCCOc1nc(CN2CC(C(=O)O)C2)nc2oc(-c3cccc(F)c3)nc12` [Example 51]: 24%.
Turning to `CCCOc1nc(CN2CC(C(=O)OC)C2)nc2oc(-c3cccc(F)c3)nc12` [Example 52], the “% Activation (Edg-1 receptor activation in percent of the activation by 10 μM S1P)” value was determined as 35%.
Regarding `CCCOc1nc(CN2C(=O)CN(C)C2=O)nc2oc(-c3cccc(F)c3)nc12` [Example 53], the “% Activation (Edg-1 receptor activation in percent of the activation by 10 μM S1P)” value was 69%.
Consider `CCCOc1nc(Cn2cnc(CO)c2)nc2oc(-c3cccc(F)c3)nc12` [Example 54], for which the “% Activation (Edg-1 receptor activation in percent of the activation by 10 μM S1P)” value was determined as 30%.
On to `CCCOc1nc(CN2CCN(S(C)(=O)=O)CC2)nc2oc(-c3cccc(F)c3)nc12` [Example 55], for which the “% Activation (Edg-1 receptor activation in percent of the activation by 10 μM S1P)” value is recorded as 22%.
For `CCCOc1nc(Cn2cnc(C(=O)OC)c2)nc2oc(-c3cccc(F)c3)nc12` [Example 56], the “% Activation (Edg-1 receptor activation in percent of the activation by 10 μM S1P)” value is 44%.
The value for `CCCOc1nc(Cn2cnc(C)c2)nc2oc(-c3cccc(F)c3)nc12` [Example 57] was 99%.
The same measure for `CCCOc1nc(Cn2cc(C)cn2)nc2oc(-c3cccc(F)c3)nc12` [Example 58]: 35%; for `CCCOc1nc(Cn2cnc(-c3ccccc3)c2)nc2oc(-c3cccc(F)c3)nc12` [Example 59]: 30%; for `CCCOc1nc(Cn2cncc2C(=O)OC)nc2oc(-c3cccc(F)c3)nc12` [Example 60]: 64%.
The same measure for `CCCOc1nc(Cn2ccnc2)nc2oc(-c3cccc(F)c3)nc12` [Example 61]: 76%.
For the compound `CCCOc1nc(CN2C(=O)COCC2=O)nc2oc(-c3cccc(F)c3)nc12` [Example 62], the “% Activation (Edg-1 receptor activation in percent of the activation by 10 μM S1P)” value was determined as 94%.
`CCCOc1nc(CN2C(=O)CCCC2=O)nc2oc(-c3cccc(F)c3)nc12` [Example 63]: the “% Activation (Edg-1 receptor activation in percent of the activation by 10 μM S1P)” value amounted to 102%.
For `CCCOc1nc(CN2CCSC2)nc2oc(-c3cccc(F)c3)nc12` [Example 64], the “% Activation (Edg-1 receptor activation in percent of the activation by 10 μM S1P)” value was determined as 93%.
The same measure for `CCCOc1nc(CN2CCSCC2)nc2oc(-c3cccc(F)c3)nc12` [Example 65]: 109%.
As for `CCCOc1nc(CN2CCOCC2)nc2oc(-c3ccc(F)c(F)c3)nc12` [Example 66], the “% Activation (Edg-1 receptor activation in percent of the activation by 10 μM S1P)” value was 107%.
The value for `CCCOc1nc(CN2CCCOCC2)nc2oc(-c3ccc(F)c(F)c3)nc12` [Example 67] was 105%.
The value for `CCCOc1nc(CN2CCC(F)(F)CC2)nc2oc(-c3ccc(F)c(F)c3)nc12` [Example 68] was 120%; that for `CCCOc1nc(CN2CCCC(F)C2)nc2oc(-c3cccc(F)c3)nc12` (centres unmarked) [Example 69] was 113%.
The same measure for `CCCOc1nc(CN2CCC(F)CC2)nc2oc(-c3cccc(F)c3)nc12` [Example 70]: 113%.
On to `CCCOc1nc(CN2CCOCC2)nc2oc(-c3ccnc(Cl)c3)nc12` [Example 71], for which the “% Activation (Edg-1 receptor activation in percent of the activation by 10 μM S1P)” value was 116%.
The value for `CCCOc1nc(CN2CCOCC2)nc2oc(-c3cccc(C(F)(F)F)c3)nc12` [Example 72] was 99%; that for `CCCOc1nc(CN2CCC(F)(F)CC2)nc2oc(-c3cccc(C(F)(F)F)c3)nc12` [Example 73] was 120%.
On to `CCCOc1nc(CN2CCCOCC2)nc2oc(-c3cc(Cl)ccc3OC)nc12` [Example 74], for which the “% Activation (Edg-1 receptor activation in percent of the activation by 10 μM S1P)” value is 114%.
The same measure for `CCCOc1nc(CN2CCOCC2)nc2oc(-c3cc(Cl)ccc3OC)nc12` [Example 75]: 72%.
The value for `CCCOc1nc(CN2CCC(F)(F)CC2)nc2oc(-c3cc(Cl)ccc3OC)nc12` [Example 76] was 104%; that for `CCCOc1nc(CN2CCOCC2)nc2oc(-c3ccc(Cl)c(Cl)c3)nc12` [Example 77] was 112%.
The same measure for `CCCOc1nc(CN2CCCOCC2)nc2oc(-c3ccc(Cl)c(Cl)c3)nc12` [Example 78]: 103%; for `CCCOc1nc(CN2CCC(F)(F)CC2)nc2oc(-c3ccc(Cl)c(Cl)c3)nc12` [Example 79]: 111%.
On to `CCCOc1nc(CN2CCCOCC2)nc2oc(-c3cc(OC)ccc3OC)nc12` [Example 80], for which the “% Activation (Edg-1 receptor activation in percent of the activation by 10 μM S1P)” value stood at 65%.
The value for `CCCOc1nc(CN2CCC(F)(F)CC2)nc2oc(-c3cc(OC)ccc3OC)nc12` [Example 81] was 83%; that for `CCCOc1nc(CN2CCOCC2)nc2oc(-c3c(F)ccc(F)c3F)nc12` [Example 82] was 104%.
